# Tested on: patients with rheumatoid arthritis
# Assay: Phase II clinical study: adverse (reverse) drug effects and drug toleration
# Assay type: in vivo, human
# Description: It was a multiple-centered, randomized, parallel, positive controlled Phrase II clinical study.
# The eneral condition of patients was evaluated on each visit and follow-up survey. Patients were inquired of symptoms and signs into a 26-item list of side effect. Once a possible side effect occurred, the relevant information as time, severity, frequency, duration, method used in release and its result were recorded by the doctor. […] A second disease occurred during the study was not counted in as a side effect. Index of overall side-effect is as below:
# 2=upset of medium severity, interfere with the daily life of patient
# 3=sever unwell, obviously affect a normal daily life and may need a bed rest.
# 4=life threatening side effect
# Investigators should score individually on drug toleration in each patient after the test base on the following criteria:
# 0=bear sever side effect(s) and need to halt the test
# 1=side effects(s) of medium severity, relevant treatments is adopted.
# 2=mild side effect(s), no treatment was needed
# [1] = double-blind, 4 weeks, column 1
# [2] = double-blind, 12 weeks, column 1
# [3] = double-blind, 12 weeks, column 2
# [4] = overall group, 4 weeks, column 1
# [5] = overall group, 4 weeks, column 2
# [6] = overall group, 4 weeks, column 3
# [7] = overall group, 8 weeks, column 1
# [8] = overall group, 8 weeks, column 2
# [9] = overall group, 8 weeks, column 3
# [10] = overall group, 12 weeks, column 1
# [11] = overall group, 12 weeks, column 2
# [12] = overall group, 24 weeks, column 1
# [13] = overall group, 24 weeks, column 2
smiles,measurement,setting,value
"CN(Cc1cnc2nc(N)nc(N)c2n1)c1ccc(C(=O)N[C@@H](CCC(=O)O)C(=O)O)cc1 [MTX, Methotrexate]",Events of reverse drug effects: Dizziness,[1],3
same,Events of reverse drug effects: Headache,[1],1
same,Events of reverse drug effects: Bad appetite,[2],2
same,Events of reverse drug effects: Dizziness,[2],1
same,Events of reverse drug effects: Frequency of micturition,[2],1
same,Events of reverse drug effects: Headache,[2],1
same,Events of reverse drug effects: Lethargy,[2],1
same,Events of reverse drug effects: Nausea,[2],4
same,Events of reverse drug effects: Bad appetite,[3],2
same,Events of reverse drug effects: Insomnia,[3],1
same,Events of reverse drug effects: Nausea,[3],4
same,Events of reverse drug effects: Abd distension,[4],7
same,Events of reverse drug effects: Bad appetite,[4],27
same,Events of reverse drug effects: Burning heart,[4],1
same,Events of reverse drug effects: Constipation,[4],3
same,Events of reverse drug effects: Diarrhea,[4],1
same,Events of reverse drug effects: Dizziness,[4],6
same,Events of reverse drug effects: Headache,[4],1
same,Events of reverse drug effects: Lethargy,[4],1
same,Events of reverse drug effects: Nausea,[4],14
same,Events of reverse drug effects: Palpitation,[4],3
same,Events of reverse drug effects: Stomachache,[4],1
same,Events of reverse drug effects: Stomatitis,[4],2
same,Events of reverse drug effects: Vomiting,[4],3
same,Events of reverse drug effects: Abd distension,[5],5
same,Events of reverse drug effects: Bad appetite,[5],3
same,Events of reverse drug effects: Diarrhea,[5],1
same,Events of reverse drug effects: Headache,[5],1
same,Events of reverse drug effects: Nausea,[5],8
same,Events of reverse drug effects: Stomachache,[5],1
same,Events of reverse drug effects: Burning heart,[6],2
same,Events of reverse drug effects: Stomachache,[6],1
same,Events of reverse drug effects: Abd distension,[7],11
same,Events of reverse drug effects: Bad appetite,[7],28
same,Events of reverse drug effects: Burning heart,[7],3
same,Events of reverse drug effects: Constipation,[7],3
same,Events of reverse drug effects: Diarrhea,[7],1
same,Events of reverse drug effects: Dizziness,[7],4
same,Events of reverse drug effects: Headache,[7],2
same,Events of reverse drug effects: Insomnia,[7],5
same,Events of reverse drug effects: Lethargy,[7],2
same,Events of reverse drug effects: Nausea,[7],16
same,Events of reverse drug effects: Palpitation,[7],3
same,Events of reverse drug effects: Stomatitis,[7],9
same,Events of reverse drug effects: Vomiting,[7],2
same,Events of reverse drug effects: Abd distension,[8],4
same,Events of reverse drug effects: Bad appetite,[8],5
same,Events of reverse drug effects: Burning heart,[8],1
same,Events of reverse drug effects: Headache,[8],1
same,Events of reverse drug effects: Nausea,[8],7
same,Events of reverse drug effects: Skin rash,[8],1
same,Events of reverse drug effects: Stomatitis,[8],1
same,Events of reverse drug effects: Vomiting,[8],1
same,Events of reverse drug effects: Abd distension,[9],1
same,Events of reverse drug effects: Bad appetite,[9],1
same,Events of reverse drug effects: Burning heart,[9],1
same,Events of reverse drug effects: Constipation,[9],1
same,Events of reverse drug effects: Abd distension,[10],15
same,Events of reverse drug effects: Bad appetite,[10],35
same,Events of reverse drug effects: Burning heart,[10],2
same,Events of reverse drug effects: Constipation,[10],2
same,Events of reverse drug effects: Diarrhea,[10],1
same,Events of reverse drug effects: Dizziness,[10],4
same,Events of reverse drug effects: Headache,[10],2
same,Events of reverse drug effects: Insomnia,[10],5
same,Events of reverse drug effects: Lethargy,[10],1
same,Events of reverse drug effects: Nausea,[10],25
same,Events of reverse drug effects: Palpitation,[10],2
same,Events of reverse drug effects: Skin rash,[10],1
same,Events of reverse drug effects: Stomatitis,[10],9
same,Events of reverse drug effects: Vomiting,[10],3
same,Events of reverse drug effects: Abd distension,[11],4
same,Events of reverse drug effects: Bad appetite,[11],3
same,Events of reverse drug effects: Headache,[11],1
same,Events of reverse drug effects: Insomnia,[11],1
same,Events of reverse drug effects: Nausea,[11],10
same,Events of reverse drug effects: Stomatitis,[11],1
same,Events of reverse drug effects: Burning heart,"overall group, 12 weeks, column 3",1
same,Events of reverse drug effects: Bad appetite,[12],3
same,Events of reverse drug effects: Dizziness,[12],1
same,Events of reverse drug effects: Headache,[12],2
same,Events of reverse drug effects: Insomnia,[12],1
same,Events of reverse drug effects: Nausea,[12],7
same,Events of reverse drug effects: Vomiting,[12],2
same,Events of reverse drug effects: Insomnia,[13],1
same,Events of reverse drug effects: Nausea,[13],2
same,Events of reverse drug effects: Vomiting,[13],1
